In EP4095134A1, “POLYCYCLIC COMPOUNDS FOR THE TREATMENT OF NEUROLOGICAL INDICATIONS” (UCL Business Ltd, priority 2021, dated 2022):
Values belong to the molecule of their own block, whether it stands above or below them.

Target: T1, P2Y1 receptor (Homo sapiens, UniProt P47900)
T1 construct: expressed in transfected cells
Test: P2Y1 IP1 accumulation HTRF assay, antagonism of agonist MRS2365 in stably transfected cells
Type: cell-based
Conditions: for IC50: 5nM MRS2365, values rounded to nearest whole number
Protocol: IC50 values were determined using a cell based assay in stably transfected cells overexpressing the P2Y1 receptor. The assay system is a […] (HTRF) assay measuring accumulation of the intracellular messenger inositol monophosphate (IP1), generated intracellularly following activation of P2Y1. Activity of test compounds was generated by measuring antagonism of the increase in IP1 generated by addition of a selective P2Y1 agonist, MRS2365.
P2Y1 overexpressing cells were maintained in T175 flasks. The day before the assay, these cells were split and 20µl cell suspension transferred to each well of white 384-well assay plates at a cell density of 0.5x10^6 cells/mL. Plates were pulse centrifuged, then incubated overnight at 37°C / 5% CO2 prior to assay.
On day of assay, medium was removed from cells and replaced with stimulation buffer. Compounds were prepared in 100% DMSO for addition to cells using the Tecan D300e digital dispenser; compounds were prepared in cassette heads and added directly to wells in the required concentration range, to give a 10-point concentration response curve from 10µM with semi-log dilutions and a final DMSO concentration of 0.1%. Positive control antagonist curves with standard compounds were included on each plate. Plates were incubated with antagonists for 1 hour prior to addition of 5nM of the agonist MRS2365, dispensed using a Bravo liquid handler. Following agonist addition, plates were incubated for 60 minutes prior to assay. Both incubations were carried out at 37°C / 5% CO2.
For the assay, IP1 accumulation was quantified using the IPOne kit according to manufacturer's instructions. In short, a standard curve was prepared for IP 1 quantification, and cells lysed using kit lysis buffer. Assay reagents were added to the lysates, and incubated for 1 hour at room temperature without spinning or shaking. Plates were analysed on a BMG Pherastar plate reader, and IP1 signal generated in cells interpolated from the standard curve.
For all reported results, N is greater than or equal to 4. An individual N refers to one assay run with a single weighing of compound. A minimum of two assay runs were performed for each of two independent weighings of compound. Results (racemic)

T1 sequence (P47900 whole entry): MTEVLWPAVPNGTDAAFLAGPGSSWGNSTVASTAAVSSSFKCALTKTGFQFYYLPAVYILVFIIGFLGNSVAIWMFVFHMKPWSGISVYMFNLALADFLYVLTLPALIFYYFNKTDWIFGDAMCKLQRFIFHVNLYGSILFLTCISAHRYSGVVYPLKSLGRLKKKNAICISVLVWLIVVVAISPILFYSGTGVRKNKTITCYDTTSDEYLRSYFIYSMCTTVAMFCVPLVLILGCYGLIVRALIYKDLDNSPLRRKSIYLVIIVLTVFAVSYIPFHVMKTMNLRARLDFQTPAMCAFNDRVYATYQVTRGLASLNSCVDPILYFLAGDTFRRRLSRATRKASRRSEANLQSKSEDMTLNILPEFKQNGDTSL

Structure (SMILES): Cc1ncc(NC(=O)Nc2ccc(Cl)cc2)c(Oc2ccccc2C2(C(F)(F)F)CCO2)n1 (racemic) [S69, 1-(4-chlorophenyl)-3-(2-methyl-4-(2-(2-(trifluoromethyl)oxetan-2-yl)phenoxy)pyrimidin-5-yl)urea]
IC50 (racemic, N >= 4): 1410 nM

Structure (SMILES): O=C(Nc1ccc2c(c1)OCO2)Nc1cccnc1Oc1ccccc1C1(C(F)(F)F)CCO1 (racemic) [S70, 1-(benzo[d][1,3]dioxol-5-yl)-3-(2-(2-(2-(trifluoromethyl)oxetan-2-yl)phenoxy)pyridin-3-yl)urea]
IC50 (racemic, N >= 4): 1450 nM

Structure (SMILES): O=C(Nc1ccc(C(F)(F)F)nc1)Nc1cccnc1Oc1ccccc1C1(C(F)(F)F)CCO1 (racemic) [S71, 1-(2-(2-(2-(trifluoromethyl)oxetan-2-yl)phenoxy)pyridin-3-yl)-3-(6-(trifluoromethyl)pyridin-3-yl)urea]
IC50 (racemic, N >= 4): 1480 nM

Structure (SMILES): N#Cc1ccc(NC(=O)Nc2cccnc2Oc2ccccc2C2(C(F)(F)F)CCO2)c(F)c1 (racemic) [S72, 1-(4-cyano-2-fluorophenyl)-3-(2-(2-(2-(trifluoromethyl)oxetan-2-yl)phenoxy)pyridin-3-yl)urea]
IC50 (racemic, N >= 4): 1490 nM

Structure (SMILES): FC(F)(F)c1nnc(Nc2cccnc2Oc2ccccc2C2(C(F)(F)F)CCO2)s1 (racemic) [S73]
IC50 (racemic, N >= 4): 1690 nM

Structure (SMILES): O=C(Nc1cccnc1Oc1ccccc1C1(C(F)(F)F)CCO1)NC1CC2(CC2)C1 (racemic) [S74]
IC50 (racemic, N >= 4): 2140 nM

Structure (SMILES): COc1ccc(NC(=O)Nc2ccc(C)nc2Oc2ccc(F)cc2C2(C(F)(F)F)CCO2)cn1 (racemic) [S75, 1-(2-(4-fluoro-2-(2-(trifluoromethyl)oxetan-2-yl)phenoxy)-6-methylpyridin-3-yl)-3-(6-methoxypyridin-3-yl)urea]
IC50 (racemic, N >= 4): 2650 nM

Structure (SMILES): Cc1ccc(Nc2nnc(C(F)F)s2)c(Oc2ccc(F)cc2C2(C(F)(F)F)CCO2)n1 (racemic) [S76]
IC50 (racemic, N >= 4): 3050 nM

Structure (SMILES): COc1cc(NC(=O)Nc2ccc(C)nc2Oc2ccc(F)cc2C2(C(F)(F)F)CCO2)ccn1 (racemic) [S77, 1-(2-(4-fluoro-2-(2-(trifluoromethyl)oxetan-2-yl)phenoxy)-6-methylpyridin-3-yl)-3-(2-methoxypyridin-4-yl)urea]
IC50 (racemic, N >= 4): 3140 nM

Structure (SMILES): Cn1c(C(F)(F)F)nc2ccc(NC(=O)Nc3cccnc3Oc3ccccc3C3(C(F)(F)F)CCO3)cc21 (racemic) [S78, 1-(1-methyl-2-(trifluoromethyl)-1H-benzo[d]imidazol-6-yl)-3-(2-(2-(2-(trifluoromethyl)oxetan-2-yl)phenoxy)pyridin-3-yl)urea]
IC50 (racemic, N >= 4): 3160 nM

Structure (SMILES): N#Cc1ccc(NC(=O)Nc2cccnc2Oc2ccccc2C2(C(F)(F)F)CCO2)cc1 (racemic) [S79, 1-(4-cyanophenyl)-3-(2-(2-(2-(trifluoromethyl)oxetan-2-yl)phenoxy)pyridin-3-yl)urea]
IC50 (racemic, N >= 4): 3170 nM

Structure (SMILES): O=C(Nc1ccccc1)Nc1cccnc1Oc1ccccc1C1(C(F)F)CCO1 (racemic) [S80]
IC50 (racemic, N >= 4): 3280 nM

Structure (SMILES): Cc1ncc(NC(=O)Nc2ccc(OC3CC(F)(F)C3)cc2)c(Oc2ccccc2C2(C(F)(F)F)CCO2)n1 (racemic) [S81, 1-(4-(3,3-difluorocyclobutoxy)phenyl)-3-(2-methyl-4-(2-(2-(trifluoromethyl)oxetan-2-yl)phenoxy)pyrimidin-5-yl)urea]
IC50 (racemic, N >= 4): 3530 nM

Structure (SMILES): FC(F)c1nnc(Nc2cccnc2Oc2ccccc2C2(C(F)(F)F)CCO2)s1 (racemic) [S82]
IC50 (racemic, N >= 4): 4530 nM

Structure (SMILES): CN1C(=O)CC1(c1ccccc1Oc1ncccc1NC(=O)Nc1ccc(OC(F)(F)F)cc1)C(F)F (racemic) [S83]
IC50 (racemic, N >= 4): 4710 nM

Structure (SMILES): O=C(Nc1nc2ccccc2[nH]1)Nc1cccnc1Oc1ccccc1C1(C(F)(F)F)CCO1 (racemic) [S84, 1-(1H-benzo[d]imidazol-2-yl)-3-(2-(2-(2-(trifluoromethyl)oxetan-2-yl)phenoxy)pyridin-3-yl)urea]
IC50 (racemic, N >= 4): 4940 nM

Structure (SMILES): Cn1c(C(F)F)nc2ccc(NC(=O)Nc3cccnc3Oc3ccccc3C3(C(F)(F)F)CCO3)cc21 (racemic) [S85, 1-(2-(difluoromethyl)-1-methyl-1H-benzo[d]imidazol-6-yl)-3-(2-(2-(2-(trifluoromethyl)oxetan-2-yl)phenoxy)pyridin-3-yl)urea]
IC50 (racemic, N >= 4): 5580 nM

Structure (SMILES): Cc1ccc(NC(=O)NC2CC3(C2)CC(F)(F)C3)c(Oc2ccc(F)cc2C2(C(F)(F)F)CCO2)n1 (racemic) [S86, 1-(6,6-difluorospiro[3.3]heptan-2-yl)-3-(2-(4-fluoro-2-(2-(trifluoromethyl)oxetan-2-yl)phenoxy)-6-methylpyridin-3-yl)urea]
IC50 (racemic, N >= 4): 6050 nM

Structure (SMILES): O=C(Nc1ccc(OC(F)(F)F)cc1)Nc1cccnc1Oc1ccccc1C1COC1 (racemic) [S87]
IC50 (racemic, N >= 4): 4590 nM

Structure (SMILES): Cc1c(Oc2ncccc2NC(=O)Nc2ccc(OC(F)(F)F)cc2)cccc1C1COC1 (racemic) [S91]
IC50 (racemic, N >= 4): 1370 nM

Structure (SMILES): O=C(Nc1ccc(OC(F)(F)F)cc1)Nc1cccnc1Oc1cccc(C2COC2)c1 (racemic) [S92]
IC50 (racemic, N >= 4): 2790 nM

Structure (SMILES): COc1ccc2nc(Nc3cccnc3Oc3ccc(F)cc3C3(C(F)(F)F)CCO3)[nH]c2n1 (racemic) [S96]
inhibition at 10 µM (at maximum tested concentration of 10000 nM, full dose-response curve not generated): 56%

Structure (SMILES): Cc1ccc(NC(=O)Nc2ccc(OC(F)(F)F)cc2F)c(Oc2ccccc2[C@]2(C(F)(F)F)CCO2)n1 (racemic) [S104]
IC50 (single enantiomer): 68 nM

Structure (SMILES): CN1CC[C@]1(c1ccccc1Oc1ncccc1NC(=O)Nc1ccc(OC(F)(F)F)cc1)C(F)(F)F (racemic) [S105]
IC50 (single enantiomer): 77 nM

Structure (SMILES): Cc1ccc(NC(=O)Nc2ccc(Cl)cc2F)c(Oc2ccccc2[C@]2(C(F)(F)F)CCO2)n1 (racemic) [S109]
IC50 (single enantiomer): 126 nM

Structure (SMILES): COc1ccc2nc(Nc3cccnc3Oc3ccc(F)cc3C3(C(F)(F)F)CCO3)[nH]c2n1 (racemic) [S119]
IC50 (racemic, N >= 4): 721 nM

Continued, values first:

IC50 (racemic, N >= 4): 844 nM
Structure (SMILES): Cc1ccc(NC(=O)NC2CC3(CCC3)C2)c(Oc2ccc(F)cc2C2(C(F)(F)F)CCO2)n1 (racemic) [S63, 1-(2-(4-fluoro-2-(2-(trifluoromethyl)oxetan-2-yl)phenoxy)-6-methylpyridin-3-yl)-3-(spiro[3.3]heptan-2-yl)urea]

IC50 (racemic, N >= 4): 926 nM
Structure (SMILES): Cc1ncc(NC(=O)Nc2ccc(Cl)c(F)c2)c(Oc2ccccc2C2(C(F)(F)F)CCO2)n1 (racemic) [S64, 1-(4-chloro-3-fluorophenyl)-3-(2-methyl-4-(2-(2-(trifluoromethyl)oxetan-2-yl)phenoxy)pyrimidin-5-yl)urea]

IC50 (racemic, N >= 4): 983 nM
Structure (SMILES): O=C(Nc1ccc(F)cc1F)Nc1cccnc1Oc1ccccc1C1(C(F)(F)F)CCO1 (racemic) [S65, 1-(2,4-difluorophenyl)-3-(2-(2-(2-(trifluoromethyl)oxetan-2-yl)phenoxy)pyridin-3-yl)urea]

IC50 (racemic, N >= 4): 1020 nM
Structure (SMILES): Cc1ccc(NC(=O)Nc2ccc(C#N)cc2)c(Oc2ccc(F)cc2C2(C(F)(F)F)CCO2)n1 (racemic) [S66, 1-(4-cyanophenyl)-3-(2-(4-fluoro-2-(2-(trifluoromethyl)oxetan-2-yl)phenoxy)-6-methylpyridin-3-yl)urea]

IC50 (racemic, N >= 4): 1060 nM
Structure (SMILES): COc1cc(NC(=O)Nc2ccc(C)nc2Oc2ccccc2C2(C(F)(F)F)CCO2)ccc1F (racemic) [S67, 1-(4-fluoro-3-methoxyphenyl)-3-(6-methyl-2-(2-(2-(trifluoromethyl)oxetan-2-yl)phenoxy)pyridin-3-yl)urea]

IC50 (racemic, N >= 4): 1330 nM
Structure (SMILES): COc1ncc(NC(=O)Nc2cccnc2Oc2ccc(F)cc2C2(C(F)(F)F)CCO2)cc1F (racemic) [S68, 1-(2-(4-fluoro-2-(2-(trifluoromethyl)oxetan-2-yl)phenoxy)pyridin-3-yl)-3-(5-fluoro-6-methoxypyridin-3-yl)urea]

IC50 (racemic, N >= 4): 1160 nM
Structure (SMILES): Cc1cccc(Oc2ncccc2NC(=O)Nc2ccc(OC(F)(F)F)cc2)c1C1COC1 (racemic) [S88]

IC50 (racemic, N >= 4): 71 nM
Structure (SMILES): CN1CCC1(c1ccccc1Oc1ncccc1NC(=O)Nc1ccc(OC(F)(F)F)cc1)C(F)(F)F (racemic) [S89]

IC50 (racemic, N >= 4): 322 nM
Structure (SMILES): O=C(Nc1ccc(OC(F)(F)F)cc1)Nc1cccnc1Oc1cccc(C2(C(F)(F)F)CCO2)c1 (racemic) [S90, 1-(4-(trifluoromethoxy)phenyl)-3-(2-(3-(2-(trifluoromethyl)oxetan-2-yl)phenoxy)pyridin-3-yl)urea]

IC50 (racemic, N >= 4): 889 nM
Structure (SMILES): Cc1c(Oc2ncccc2NC(=O)Nc2ccc(OC(F)(F)F)cc2)cccc1N1CCC1 (racemic) [S94]

IC50 (racemic, N >= 4): 36 nM
Structure (SMILES): CC1(c2ccccc2Oc2ncccc2NC(=O)Nc2ccc(OC(F)(F)F)cc2)CCC1 (racemic) [S95]

IC50 (racemic, N >= 4): 1010 nM
Structure (SMILES): Fc1ccc(Oc2ncccc2Nc2nc3ccc(C(F)(F)F)cc3[nH]2)c(C2(C(F)(F)F)CCO2)c1 (racemic) [S97]

IC50 (racemic, N >= 4): 45 nM
Structure (SMILES): O=C(Nc1ccc(OC(F)(F)F)cc1)Nc1cccnc1Oc1ccccc1C1(C(F)(F)F)CCN1CC1CC1 (racemic) [S116]

IC50 (racemic, N >= 4): 39 nM
Structure (SMILES): CC(C)(C)CN1CCC1(c1ccccc1Oc1ncccc1NC(=O)Nc1ccc(OC(F)(F)F)cc1)C(F)(F)F (racemic) [S117]

IC50 (racemic, N >= 4): 121 nM
Structure (SMILES): O=C(Nc1ccc(OC(F)(F)F)cc1)Nc1cccnc1Oc1ccccc1C1(C(F)F)CCN1CCF (racemic) [S118]

IC50 (racemic, N >= 4): 1240 nM
Structure (SMILES): Cc1cc2nc(Nc3cccnc3Oc3ccc(F)cc3C3(C(F)(F)F)CCO3)[nH]c2cc1C (racemic) [S120]
